Assay results from paper PMC4892435, “Structure of astrotactin-2: a conserved vertebrate-specific and perforin-like membrane protein involved in neuronal development” (Open Biology, 2016).

Biological target: T1, ASTN-2_701-1288 (Homo sapiens, UniProt O75129)
T1 construct: gene ASTN2; endodomain, residues 701-1288 in methods (crystal construct EGF-3 to C-terminus is printed 649-1288; borders may mix numberings); secreted from HEK293T, hexahistidine
T1 sequence (O75129 701-1288 isoform O75129-2): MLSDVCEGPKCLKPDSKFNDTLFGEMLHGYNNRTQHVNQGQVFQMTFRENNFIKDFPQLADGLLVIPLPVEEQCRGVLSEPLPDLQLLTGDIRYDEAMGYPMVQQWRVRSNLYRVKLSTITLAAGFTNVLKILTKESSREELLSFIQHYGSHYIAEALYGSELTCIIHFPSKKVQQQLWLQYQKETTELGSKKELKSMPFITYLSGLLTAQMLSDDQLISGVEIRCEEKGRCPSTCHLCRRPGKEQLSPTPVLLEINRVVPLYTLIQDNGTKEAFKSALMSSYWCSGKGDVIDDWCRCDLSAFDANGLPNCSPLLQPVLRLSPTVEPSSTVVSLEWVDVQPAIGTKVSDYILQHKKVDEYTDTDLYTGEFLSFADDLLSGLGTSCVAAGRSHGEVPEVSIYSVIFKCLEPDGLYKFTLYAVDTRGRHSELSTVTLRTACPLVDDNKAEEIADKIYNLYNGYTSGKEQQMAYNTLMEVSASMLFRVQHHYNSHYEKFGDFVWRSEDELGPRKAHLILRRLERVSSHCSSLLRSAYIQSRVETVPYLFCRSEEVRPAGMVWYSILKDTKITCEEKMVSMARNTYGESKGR
Test: SPR, Biacore T200, immobilised biotinylated ligand
Format: binding
Settings: pH 7.5, 20 °C, 150 mM NaCl; labelled compound (biotin, immobilised); one Kd printed jointly for PIP3 and PIP2; construct of this run not stated

Row | Kd [µM] | Substance
1 | 30 | PtdIns(3,4,5)P3 (C-39B6a)
2 | 30 | PtdIns(4,5)P2 (C-45B6a)
